Reference: the supplement of paper PMC10307832

Experiments:
Experiment in all cases: relative viability (nuclei count vs DMSO), 5 days (fraction); higher = more cells survive
[1] = compound: C1CSC2=C(C(=O)N1)SC3=C2C=C(C=C3)O [kb NB 142-70] + N=C(N)NC(=N)NCCc1ccccc1 [Phenformin] (partner 250 µM)
Outline: (§1)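 A single step with final 0.05% Triton X-100, 1% formaldehyde and 1 ug/ml Hoechst fixed the cells and stained nuclei 5 days after treatment. Lung cancer cell lines in 1536-well plates had been treated by pin tool the day after seeding with one drug alone or a fixed anchor-drug dose plus five library-drug doses (not always all listed) in √10 steps, and nuclei were counted on 4× images. Relative viability is the ratio of nuclei in treated wells to nuclei in vehicle wells, taken as the median of duplicate plates.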

[2] = compound: C1CSC2=C(C(=O)N1)SC3=C2C=C(C=C3)O [kb NB 142-70] + CC1(C)CCC(c2ccc(Cl)cc2)=C(CN2CCN(c3ccc(C(=O)NS(=O)(=O)c4ccc(N[C@H](CCN5CCOCC5)CSc5ccccc5)c(S(=O)(=O)C(F)(F)F)c4)cc3)CC2)C1 [Navitoclax] (partner 0.5 µM)
Outline: as §1

[3] = compound: NCC(=O)Nc1ccc(-n2nc(C(F)(F)F)cc2-c2ccc3c(ccc4ccccc43)c2)cc1 + N=C(N)NC(=N)NCCc1ccccc1 [Phenformin] (partner 250 µM)
Outline: as §1

[4] = compound: C1CSC2=C(C(=O)N1)SC3=C2C=C(C=C3)O [kb NB 142-70]
Outline: (§2)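 For viability, nuclei in each treated well were divided by nuclei in vehicle wells and the median across plates was taken. Lung cancer cell lines in 1536-well plates were pinned with five library-drug doses (not always all listed) spaced by √10, cultured 5 days without medium change, and imaged at 4× after Hoechst staining, with plates passing only at control CV below 25% and at least one doubling.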

[5] = compound: NCC(=O)Nc1ccc(-n2nc(C(F)(F)F)cc2-c2ccc3c(ccc4ccccc43)c2)cc1
Outline: as §2

Cell Line	relative viability ([1]; first compound 0.1 µM)	relative viability ([1]; first compound 1 µM)	relative viability ([1]; first compound 3.162 µM)	relative viability ([2]; first compound 0.1 µM)	relative viability ([2]; first compound 1 µM)	relative viability ([2]; first compound 3.162 µM)	relative viability ([3]; first compound 0.02 µM)	relative viability ([3]; first compound 0.06325 µM)	relative viability ([3]; first compound 0.2 µM)	relative viability ([3]; first compound 0.6325 µM)	relative viability ([3]; first compound 2 µM)	relative viability ([4]; 0.1 µM)	relative viability ([4]; 1 µM)	relative viability ([4]; 3.162 µM)	relative viability ([5]; 0.02 µM)	relative viability ([5]; 0.06325 µM)	relative viability ([5]; 0.2 µM)	relative viability ([5]; 0.6325 µM)	relative viability ([5]; 2 µM)
HCC-44	0.405	0.256	0.148	1	1.16	1.09	0.308	0.252	0.25	0.202	0.284	1.01	0.997	1.08	0.996	1.03	0.952	0.984	1
NCI-H596	0.888	0.77	0.822	1	0.982	0.866	0.72	0.877	0.841	0.721	0.728	1.02	1.1	0.981	1.12	1.11	1.06	0.992	0.945
H3255	0.358	0.362	0.371	0.498	0.538	0.55	0.343	0.341	0.364	0.334	0.435	1.01	0.954	1.02	0.951	1.01	0.974	0.866	1.05
NCI-H647	0.502	0.54	0.44	1.16	1.19	0.842	0.451	0.576	0.629	0.463	0.558	1.01	1.03	0.99	0.934	1.03	1.07	0.943	0.897
NCI-H2023	0.382	0.44	0.391	0.983	1	0.644	0.414	0.441	0.403	0.454	0.412	1.07	0.946	0.642	0.952	1.06	0.957	1.06	0.922
NCI-H23	0.794	0.732	0.53	0.775	0.735	0.331	0.702	0.801	0.802	0.823	0.799	1.05	0.689	0.336	0.863	1.04	0.988	0.904	0.846
NCI-H1944	0.202	0.205	0.2	1.07	1.05	0.973	0.191	0.233	0.204	0.201	0.207	1.08	0.978	1.07	0.822	0.973	0.966	0.965	0.899
NCI-H1793	0.285	0.406	0.42	0.45	0.455	0.24	0.258	0.376	0.412	0.392	0.422	0.911	1.11	0.863	0.984	1.08	0.86	0.915	1.08
NCI-H520	0.57	0.515	0.324	1.07	1.19	0.482	0.574	0.628	0.641	0.625	0.618	0.985	0.884	0.544	1.01	1.04	1.1	0.933	1.05
A549	0.129	0.193	0.166	1.27	1.08	0.142	0.0913	0.168	0.0781	0.198	0.17	0.96	0.957	0.689	1.03	0.987	1.01	0.949	0.915
NCI-H460	0.55	0.596	0.347	0.978	1.25	0.305	0.482	0.504	0.505	0.537	0.458	1.01	0.99	0.979	0.974	0.995	1	0.987	0.976
EKVX	0.24	0.238	0.244	0.883	1.01	0.87	0.228	0.273	0.218	0.236	0.219	0.933	0.981	0.988	1.03	1.01	0.971	0.966	1.01
EPLC-272H	0.38	0.267	0.189	1.26	1.13	0.584	0.289	0.366	0.261	0.324	0.294	0.988	0.905	0.447	0.904	1.2	0.874	1.01	0.911
NCI-H1395	0.45	0.484	0.434	1.26	1.23	0.826	0.5	0.422	0.434	0.469	0.475	1.01	0.963	0.601	0.941	0.983	0.755	0.858	1
NCI-H2126	0.525	0.507	0.551	0.853	0.843	0.849	0.515	0.559	0.5	0.518	0.539	0.985	0.974	0.989	0.981	1.04	1.04	0.993	0.997
LXF-289	0.526	0.526	0.457	0.938	0.986	0.942	0.516	0.527	0.494	0.506	0.56	0.999	1.03	0.975	1.01	1.06	0.988	0.991	1.03
